Test results from patent publication US12649733B2, “3,6-diamino-pyridazin-3-yl derivatives, pharmaceutical compositions containing them and their uses as pro-apoptotic agents” (LES LABORATOIRES SERVIER, priority 2019, dated 2026).

Experiments:
BCLXL = BCLXL (Homo sapiens, UniProt Q07817, V10N/V9A); test: AlphaLISA assay (BIM peptide displacement); type: binding; conditions: 20 pM protein, 1 nM peptide
Experimental: AlphaLISA assay measures an increase in alpha signal upon binding biotinylated GST(1-218)-(FACTOR_XA)-hs ? (2-209)(SEQ ID:02—GST UniProtKB® primary accession number P08515 and BCLXL UniProtKB® primary accession number Q07817-1) coupled to a Streptavidin labeled Alpha donor bead to N-terminally labeled peptide derived from BIM (Fluorescein-betaAla-Ahx-SEQID:05, wherein SEQ ID:05 is […]) coupled to an Anti-FTIC AlphaLISA acceptor bead.
GST(1-218)(FACTOR_XA)-hs ? (2-209) was biotinylated in 50 mM phosphate buffer using a 20 fold excess of EZ Link NHS-LC-Biotin (thermoFisher catalogue number 21336) overnight at 4° C.
The addition of a compound which binds competitively to the same site as the peptide will result in an decrease in the Alpha signal of the available donor bead-protein-peptide-acceptor bead complex due to displacement of the peptide.
An 11-point serial dilution of each compound was prepared in DMSO, the final buffer conditions were 10 mM 4-(2-hydroxyethyl)-1-piperazineethanesulfonic acid [HEPES], 150 mM NaCl, 0.05% Tween 20, pH 7.4 and 4% DMSO. The final protein concentration in the assay was 20 pM with the peptide present at 1 nM). Alpha beads were used at a final concentration of 5 ug/mL. The experiments were incubated for overnight at 23° C. after acceptor bead addition. Finally the donor bead is added and incubated for 2 hours at 23° C. before Alpha signal measured on a Biotek Synergy2 plate reader (Excitation 680 nm, emission 615 nm).

H146 cells = test: H146 cell viability, MTT assay; type: cell-based; conditions: Homo sapiens, NCI-H146, 48 h, 48 h exposure
Summary of the method: (§1)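 Cells grown in RPMI 1640 with 10% heat-inactivated FBS at 37° C, 5% CO2, exposed 48 h to nine 3.16-fold serial compound dilutions in triplicate. MTT added for 4 h, SDS/HCl solubilisation overnight, absorbance at 540 nm; IC50 by four-parameter fit.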

MOLT-4 cells = test: MOLT-4 cell viability, MTT assay; type: cell-based; conditions: Homo sapiens, MOLT-4, 48 h, 48 h exposure
Summary of the method: as §1

Bcl-xL protein = molecular target: T1, Bcl-xL protein (Homo sapiens, UniProt Q07817, N197C); test: Fluorescence quenching assay (PUMA peptide displacement); type: binding; conditions: 1 nM protein, 400 nM peptide, 2 hours at 23° C.; KI determined from IC50
T1 construct: (2-197)[N197C]; His-His (two His8 stretches joined by a Gly/Ala/Ser/Thr linker)
T1 sequence (Q07817 2-197 N197C): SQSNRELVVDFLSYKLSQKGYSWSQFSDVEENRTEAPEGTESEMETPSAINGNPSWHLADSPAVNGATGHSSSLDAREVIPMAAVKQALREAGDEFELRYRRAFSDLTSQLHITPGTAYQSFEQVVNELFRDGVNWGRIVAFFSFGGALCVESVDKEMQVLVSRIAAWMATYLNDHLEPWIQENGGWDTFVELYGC
Summary of the method: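 Displacement of a TQ5WS-quencher-labelled PUMA peptide (400 nM) from Cy5-labelled His-tagged Bcl-xL 2-197 N197C (1 nM) raises fluorescence. An 11-point compound dilution was incubated 2 h at 23 °C in HEPES 10 mM, NaCl 150 mM, 0.05% Tween 20, pH 7.4, 5% DMSO. Fluorescence was read at Ex 620/Em 680 nm, and KI was derived from IC50.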

Chain of BCLXL (Q07817 with tags, fused parts or gaps V9A/V10N): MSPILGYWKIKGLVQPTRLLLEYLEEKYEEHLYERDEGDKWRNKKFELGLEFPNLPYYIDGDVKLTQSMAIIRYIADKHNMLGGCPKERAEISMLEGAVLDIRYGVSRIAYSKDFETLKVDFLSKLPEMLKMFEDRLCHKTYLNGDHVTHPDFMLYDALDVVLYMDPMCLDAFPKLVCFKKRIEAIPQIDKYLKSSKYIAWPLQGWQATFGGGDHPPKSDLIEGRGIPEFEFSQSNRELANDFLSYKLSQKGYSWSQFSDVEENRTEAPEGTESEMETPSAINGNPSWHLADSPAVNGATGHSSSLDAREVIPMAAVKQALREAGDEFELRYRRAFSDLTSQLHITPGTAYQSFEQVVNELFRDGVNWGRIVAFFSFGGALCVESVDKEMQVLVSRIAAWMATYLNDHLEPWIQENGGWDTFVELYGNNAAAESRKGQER

Row | IC50 (BCLXL) [nM] | IC50 (H146 cells) [nM] | IC50 (MOLT-4 cells) [nM] | Ki (Bcl-xL protein) [nM] | Compound
1 | 22 |  |  |  | Cc1cc(N(CCCC(O)CN(C)C)c2nc(C(=O)O)cs2)nnc1Nc1nc2ccccc2s1 (stereo not drawn) [Example 143, 2-[[6-(1,3-Benzothiazol-2-ylamino)-5-methyl-pyridazin-3-yl]-[5-(dimethylamino)-4-hydroxy-pentyl]amino]thiazole-4-carboxylic acid]
2 | 0.48 |  |  |  | Cc1cc(N(CCCCO)c2nc(C(=O)O)cs2)nnc1Nc1nc2ccccc2s1 [Example 110, 2-[[6-(1,3-Benzothiazol-2-ylamino)-5-methyl-pyridazin-3-yl]-(4-hydroxybutyl)amino]thiazole-4-carboxylic acid]
3 | 80 |  |  |  | Cc1cc(N(C)c2nc(C(=O)O)c(C3CN(c4ccccc4)C3)s2)nnc1Nc1nc2ccccc2s1 [Example 153, 2-({6-[(1,3-Benzothiazol-2-yl)amino]-5-methylpyridazin-3-yl}(methyl)amino)-5-(1-phenylazetidin-3-yl)-1,3-thiazole-4-carboxylic acid]
4 | 7.7 |  |  |  | Cc1cc(N(C)c2nc(C(=O)O)c(C3CN(C(=O)c4ccccc4)C3)s2)nnc1Nc1nc2ccccc2s1 [Example 136, 5-(1-Benzoylazetidin-3-yl)-2-({6-[(1,3-benzothiazol-2-yl)amino]-5-methylpyridazin-3-yl}(methyl)amino]-1,3-thiazole-4-carboxylic acid]
5 |  | 187 | 46.5 | 0.0078 | COC(COc1ccc(C#CCN(C)C)cc1F)Cc1sc(N(C)c2cc(C)c(Nc3nc4ccccc4s3)nn2)nc1C(=O)O (stereo not drawn) [Example 183, 2-({6-[(1,3-Benzothiazol-2-yl)amino]-5-methylpyridazin-3-yl}(methyl)amino)-5-(3-{4-[3-(dimethylamino)prop-1-yn-1-yl]-2-fluorophenoxy}-2-methoxypropyl)-1,3-thiazole-4-carboxylic acid]
6 |  | 65 | 92.5 | 0.0013 | CNCC#Cc1ccc(OCCCc2sc(N(CCCC(O)CN(C)C)c3cc(C)c(Nc4nc5ccccc5s4)nn3)nc2C(=O)O)c(F)c1 (stereo not drawn) [Example 193, 2-[[6-(1,3-Benzothiazol-2-ylamino)-5-methyl-pyridazin-3-yl]-[5-(dimethylamino)-4-hydroxy-pentyl]amino]-5-[3-[2-fluoro-4-[3-(methylamino)prop-1-ynyl]phenoxy]propyl]thiazole-4-carboxylic acid]
7 |  | 66.8 | 484 | 0.0065 | Cc1cc(N(CCCC(O)C[N+](C)(C)C)c2nc(C(=O)[O-])c(CCCOc3ccc(C#CCN(C)C)cc3F)s2)nnc1Nc1nc2ccccc2s1 (stereo not drawn) [Example 211, 2-[[6-(1,3-Benzothiazol-2-ylamino)-5-methyl-pyridazin-3-yl]-[4-hydroxy-5-(trimethylammonio)pentyl]amino]-5-[3-[4-[3-(dimethylamino)prop-1-ynyl]-2-fluoro-phenoxy]propyl]thiazole-4-carboxylate]
8 |  | 64.1 | 25.9 | 0.001 | CNCC#Cc1ccc(OCCCc2sc(N(CCCCCCN(C)C)c3cc(C)c(Nc4nc5ccccc5s4)nn3)nc2C(=O)O)c(F)c1 [Example 199, 2-[[6-(1,3-Benzothiazol-2-ylamino)-5-methyl-pyridazin-3-yl]-[6-(dimethylamino)hexyl]amino]-5-[3-[2-fluoro-4-[3-(methylamino)prop-1-ynyl]phenoxy]propyl]thiazole-4-carboxylic acid]

Continued, compound first:

Row | Compound | IC50 (BCLXL) [nM] | IC50 (H146 cells) [nM] | IC50 (MOLT-4 cells) [nM] | Ki (Bcl-xL protein) [nM]
9 | Cc1cc(N(CCCCCO)c2nc(C(=O)O)cs2)nnc1Nc1nc2ccccc2s1 [Example 125, 2-[[6-(1,3-Benzothiazol-2-ylamino)-5-methyl-pyridazin-3-yl]-(5-hydroxypentyl)amino]thiazole-4-carboxylic acid] | 8.6 |  |  | 
10 | COCC(O)CCCN(c1cc(C)c(Nc2nc3ccccc3s2)nn1)c1nc(C(=O)O)cs1 (stereo not drawn) [Example 132, 2-[[6-(1,3-Benzothiazol-2-ylamino)-5-methyl-pyridazin-3-yl]-(4-hydroxy-5-methoxy-pentyl)amino]thiazole-4-carboxylic acid] | 7.7 |  |  | 
11 | Cc1cc(N(CCCO)c2nc(C(=O)O)c(CCCOc3ccc(C#CCN(C)C)cc3F)s2)nnc1Nc1nc2ccccc2s1 [Example 126, 2-[[6-(1,3-Benzothiazol-2-ylamino)-5-methyl-pyridazin-3-yl]-(3-hydroxypropyl)amino]-5-[3-[4-[3-(dimethylamino)prop-1-ynyl]-2-fluoro-phenoxy]propyl]thiazole-4-carboxylic acid] | 0.023 |  |  | 
12 | COC(CO)CCCN(c1cc(C)c(Nc2nc3ccccc3s2)nn1)c1nc(C(=O)O)cs1 (stereo not drawn) [Example 133, 2-[[6-(1,3-Benzothiazol-2-ylamino)-5-methyl-pyridazin-3-yl]-(5hydroxy-4-methoxy-pentyl)amino]thiazole-4-carboxylic acid] | 8.9 |  |  | 
13 | CC(=O)N1CC(c2sc(N(C)c3cc(C)c(Nc4nc5ccccc5s4)nn3)nc2C(=O)O)C1 [Example 152, 5-(1-Acetylazetidin-3-yl)-2-({6-[(1,3-benzothiazol-2-yl)amino]-5-methylpyridazin-3-yl}(methyl)amino)-1,3-thiazole-4-carboxylic acid] | 2.3 |  |  | 
14 | COC(CO)CN(c1cc(C)c(Nc2nc3ccccc3s2)nn1)c1nc(C(=O)O)cs1 (stereo not drawn) [Example 111, 2-[[6-(1,3-Benzothiazol-2-ylamino)-5-methyl-pyridazin-3-yl]-(3-hydroxy-2-methoxy-propyl)amino]thiazole-4-carboxylic acid] | 27 |  |  | 
15 | Cc1cc(N(C)c2nc(C(=O)O)c(C3CN(C(=O)OC(C)(C)C)C3)s2)nnc1Nc1nc2ccccc2s1 [Example 135, 2-({6-[(1,3-Benzothiazol-2-yl)amino]-5-methylpyridazin-3-yl}(methyl)amino)-5-{1-[(tert-butoxy)carbonyl]azetidin-3-yl}-1,3-thiazole-4-carboxylic acid] | 3.9 | 5290 | 3240 | 
16 | Cc1cc(N(CCCC(O)CN2CCOCC2)c2nc(C(=O)O)cs2)nnc1Nc1nc2ccccc2s1 (stereo not drawn) [Example 131, 2-[[6-(1,3-Benzothiazol-2-ylamino)-5-methyl-pyridazin-3-yl]-(4-hydroxy-5-morpholino-pentyl)amino]thiazole-4-carboxylic acid] | 2.7 |  |  | 
17 | COc1ccc(CN(C)CC#Cc2ccc(OCCCc3sc(N(CCC(O)CO)c4cc(C)c(Nc5nc6ccccc6s5)nn4)nc3C(=O)O)c(F)c2)cc1 (stereo not drawn) [Example 121, 2-[[6-(1,3-Benzothiazol-2-ylamino)-5-methyl-pyridazin-3-yl]-(3,4-dihydroxybutyl)amino]-5-[3-[2-fluoro-4-[3-[(4-methoxyphenyl)methyl-methyl-amino]prop-1-ynyl]phenoxy]propyl]thiazole-4-carboxylic acid] | 0.058 |  |  | 
18 | Cc1cc(N(CCCC(O)C[N+]2(C)CCOCC2)c2nc(C(=O)[O-])c(CCCOc3ccc(C#CCN(C)C)cc3F)s2)nnc1Nc1nc2ccccc2s1 (stereo not drawn) [Example 217, 2-[[6-(1,3-Benzothiazol-2-ylamino)-5-methyl-pyridazin-3-yl]-[4-hydroxy-5-(4-methylmorpholin-4-ium-4-yl)pentyl]amino]-5-[3-[4-[3-(dimethylamino)prop-1-ynyl]-2-fluoro-phenoxy]propyl]thiazole-4-carboxylate] |  | 86.2 | 180 | 0.0041
19 | Cc1cc(N(C)c2nc(C(=O)O)c(CCCOc3ccc(CCCN(C)C)cc3F)s2)nnc1Nc1nc2ccccc2s1 [Example 214, 2-[[6-(1,3-Benzothiazol-2-ylamino)-5-methyl-pyridazin-3-yl]-methyl-amino]-5-[3-[4-[3-(dimethylamino)propyl]-2-fluoro-phenoxy]propyl]thiazole-4-carboxylic acid] |  | 26.7 | 22.5 | 0.004
20 | Cc1cc(N(C)c2nc(C(=O)O)c(CCCOc3ccc(C#CCN4CCCCC4)cc3F)s2)nnc1Nc1nc2ccccc2s1 [Example 204, 2-[[6-(1,3-Benzothiazol-2-ylamino)-5-methyl-pyridazin-3-yl]-methyl-amino]-5-[3-[2-fluoro-4-[3-(1-piperidyl)prop-1-ynyl]phenoxy]propyl]thiazole-4-carboxylic acid] |  | 7.3 | 0.703 | 0.006
